23 compounds from patent US12661342B2, “Heteroaryl compounds and therapeutic uses thereof in conditions associated with the alteration of the activity of beta-glucocerebrosidase” (GT GAIN THERAPEUTICS SA, priority 2019, dated 2026) can be followed below.

The structures appear in SMILES notation.

The target in this assay is T1, β-glucocerebrosidase (Homo sapiens, UniProt P04062, L483P).
T1 construct: host or cells: human Gaucher disease patient fibroblasts GM08760A
T1 sequence (P04062 40-536 L483P): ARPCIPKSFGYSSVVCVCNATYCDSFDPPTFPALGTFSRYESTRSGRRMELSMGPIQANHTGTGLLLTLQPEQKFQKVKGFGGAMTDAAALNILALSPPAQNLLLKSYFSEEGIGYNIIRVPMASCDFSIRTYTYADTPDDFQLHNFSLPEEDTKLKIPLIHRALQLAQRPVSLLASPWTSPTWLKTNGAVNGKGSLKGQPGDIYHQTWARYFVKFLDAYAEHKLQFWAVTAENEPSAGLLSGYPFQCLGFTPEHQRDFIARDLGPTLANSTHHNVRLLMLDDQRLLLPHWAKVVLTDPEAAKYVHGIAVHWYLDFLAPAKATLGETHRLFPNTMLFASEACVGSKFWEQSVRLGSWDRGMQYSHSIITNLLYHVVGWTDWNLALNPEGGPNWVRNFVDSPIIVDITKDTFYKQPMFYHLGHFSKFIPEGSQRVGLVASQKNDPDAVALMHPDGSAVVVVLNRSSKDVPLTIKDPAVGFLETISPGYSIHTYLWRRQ
Briefly: Enhancement of β-glucocerebrosidase activity measured in Gaucher disease fibroblasts (4-MU-β-D-glucopyranoside substrate, intact cells). It counts as cell-based. Set-up: key: Increase in comparison with non-treated of >2.0 fold is shown as A; Increase in comparison with non-treated of >1.7-2.0 fold is shown as B; Increase in comparison with non-treated of 1.2-1.7 fold is shown as C; D means that no increase compared with non-treated cells was detected in this method. The note with it: GBA fibroblasts bearing L444P (GM08760A, homozygous p.L444P); compound at concentrations between 6 and 50 μM; 4 days incubation. The method, then: Human fibroblasts from a patient with Gaucher disease homozygous for p.L444P mutation (GM08760A) were purchased from Coriell Institute for Medical Research (Camden, NJ, USA).
Fibroblasts were seeded at 5×10^3 cells per well in 96-well cell culture plates (Corning, NY, USA) in Dulbecco's Modified Eagle's Media (DMEM) supplemented with 10% of fetal bovine serum (FBS), 1% penicillin/streptomycin (P/S) (Thermo Fisher Scientific, Waltham, MA, USA) and grown at 37° C., 5% CO2 overnight for cell attachment. Subsequently, cells were incubated in the absence or presence of the compounds at the desired concentration for 4 days. After incubation, cells were washed twice with phosphate-buffered saline (PBS) and enzyme activity assay was performed.
β-glucocerebrosidase activity in intact cultured cells was measured by using 4-methylumbelliferyl-β-D-glucopyranoside substrate (Apollo Scientific, UK). Briefly, cells were incubated with 4-MU-β-D-glucopyranoside in 0.1 M acetate buffer pH=4 at 37° C. for 1 hour. The reaction was stopped by adding 200 μL at 100 mM glycine-NaOH pH=10.7. The liberated 4-MU was measured on a GloMax Discover plate reader (Promega, Madison, WI, USA) with and excitation at 340 nm and emission at 460 nm. Enzyme activities were expressed in treated cells as X-fold increase in comparison with non-treated cells (X=1 represents no enhancement).
The capacity of the compounds of the disclosure to produce an increase in enzyme activity in GBA fibroblasts bearing L444P at concentrations between 6 and 50 μM is denoted as follows: • Increase in comparison with non-treated of >2.0 fold is shown as A • Increase in comparison with non-treated of >1.7-2.0 fold is shown as B • Increase in comparison with non-treated of 1.2-1.7 fold is shown as C • D means that no increase compared with non-treated cells was detected in this method • ND means “not determined”
On to `Nc1cc(C(=O)N2CCCc3ccccc32)nc(Nc2ccccc2O)n1` [Example 36, (6-Amino-2-((2-hydroxyphenyl)amino)pyrimidin-4-yl)(3,4-dihydroquinolin-1(2H)-yl)methanone], for which the “Range: increase in enzyme activity in comparison with non-treated cells (Enzyme activity assay for compounds of Examples 33-141)” value is given as “C (Increase in comparison with non-treated of 1.2-1.7 fold is shown as C)”.

With `Nc1cc(C(=O)N2CCc3ccccc32)nc(Nc2ccccc2O)n1` [Example 37, (6-Amino-2-((2-hydroxyphenyl)amino)pyrimidin-4-yl)(indolin-1-yl)methanone], the “Range: increase in enzyme activity in comparison with non-treated cells (Enzyme activity assay for compounds of Examples 33-141)” value is “D”.

As for `COc1cccc(Nc2nc(N)cc(C(=O)N3Cc4ccccc4C3)n2)c1` [Example 38, (6-Amino-2-((3-methoxyphenyl)amino)pyrimidin-4-yl)(isoindolin-2-yl)methanone], the “Range: increase in enzyme activity in comparison with non-treated cells (Enzyme activity assay for compounds of Examples 33-141)” value is reported as “D”.

On to `Nc1cc(C(=O)N2Cc3ccccc3C2)nc(Nc2cccc(O)c2)n1` [Example 39, (6-Amino-2-((3-hydroxyphenyl)amino)pyrimidin-4-yl)(isoindolin-2-yl)methanone], for which the “Range: increase in enzyme activity in comparison with non-treated cells (Enzyme activity assay for compounds of Examples 33-141)” value is reported as “C (Increase in comparison with non-treated of 1.2-1.7 fold is shown as C)”.

For the compound `Cc1cccc(Nc2nc(N)cc(C(=O)N3Cc4ccccc4C3)n2)c1` [Example 40, (6-Amino-2-(m-tolylamino)pyrimidin-4-yl)(isoindolin-2-yl)methanone], the “Range: increase in enzyme activity in comparison with non-treated cells (Enzyme activity assay for compounds of Examples 33-141)” value is “C (Increase in comparison with non-treated of 1.2-1.7 fold is shown as C)”.

With `Nc1cc(C(=O)N2Cc3ccccc3C2)nc(Nc2cccc(Cl)c2)n1` [Example 41], the “Range: increase in enzyme activity in comparison with non-treated cells (Enzyme activity assay for compounds of Examples 33-141)” value is listed as “D”.

With `CN(C(=O)c1cc(N)nc(Nc2ccccc2O)c1)C1CCc2ccccc2C1` (centres unmarked) [Example 42, 2-Amino-6-((2-hydroxyphenyl)amino)-N-methyl-N-(1,2,3,4-tetrahydronaphthalen-2-yl)isonicotinamide], the “Range: increase in enzyme activity in comparison with non-treated cells (Enzyme activity assay for compounds of Examples 33-141)” value was “C (Increase in comparison with non-treated of 1.2-1.7 fold is shown as C)”.

On to `CN(C(=O)c1cc(N)nc(Nc2ccccc2O)c1)c1ccccc1` [Example 43, 2-Amino-6-((2-hydroxyphenyl)amino)-N-methyl-N-phenylisonicotinamide], for which the “Range: increase in enzyme activity in comparison with non-treated cells (Enzyme activity assay for compounds of Examples 33-141)” value was “C (Increase in comparison with non-treated of 1.2-1.7 fold is shown as C)”.

Consider `CN(C(=O)c1cc(N)nc(Nc2ccccc2O)c1)C1Cc2ccccc2C1` [Example 44, 2-Amino-N-(2,3-dihydro-1H-inden-2-yl)-6-((2-hydroxyphenyl)amino)-N-methyl-isonicotinamide], for which the “Range: increase in enzyme activity in comparison with non-treated cells (Enzyme activity assay for compounds of Examples 33-141)” value is listed as “C (Increase in comparison with non-treated of 1.2-1.7 fold is shown as C)”.

`Nc1cc(C(=O)NC2CCc3ccccc3C2)cc(Nc2ccccc2O)n1` (centres unmarked) [Example 45, 2-Amino-6-((2-hydroxyphenyl)amino)-N-(1,2,3,4-tetrahydronaphthalen-2-yl)isonicotinamide]: the “Range: increase in enzyme activity in comparison with non-treated cells (Enzyme activity assay for compounds of Examples 33-141)” value is on record as “C (Increase in comparison with non-treated of 1.2-1.7 fold is shown as C)”.

For the compound `Nc1cc(C(=O)Nc2ccccc2)cc(Nc2ccccc2O)n1` [Example 46, 2-Amino-6-((2-hydroxyphenyl)amino)-N-phenylisonicotinamide], the “Range: increase in enzyme activity in comparison with non-treated cells (Enzyme activity assay for compounds of Examples 33-141)” value was “B (Increase in comparison with non-treated of >1.7-2.0 fold is shown as B)”.

On to `Nc1cc(C(=O)NC2Cc3ccccc3C2)cc(Nc2ccccc2O)n1` [Example 47, 2-Amino-N-(2,3-dihydro-1H-inden-2-yl)-6-((2-hydroxyphenyl)amino)isonicotinamide], for which the “Range: increase in enzyme activity in comparison with non-treated cells (Enzyme activity assay for compounds of Examples 33-141)” value is reported as “C (Increase in comparison with non-treated of 1.2-1.7 fold is shown as C)”.

Regarding `Nc1cc(Nc2ccccc2F)nc(C(=O)N2CCN(c3ccccc3)CC2)c1` [Example 48, (4-Amino-6-((2-fluorophenyl)amino)pyridin-2-yl)(4-phenylpiperazin-1-yl)methanone], the “Range: increase in enzyme activity in comparison with non-treated cells (Enzyme activity assay for compounds of Examples 33-141)” value was “C (Increase in comparison with non-treated of 1.2-1.7 fold is shown as C)”.

`Nc1cc(Nc2ccccc2O)cc(C(=O)N2CCc3ccccc3C2)n1` [Example 49, (6-Amino-4-((2-hydroxyphenyl)amino)pyridin-2-yl)(3,4-dihydroisoquinolin-2(1H)-yl)methanone]: the “Range: increase in enzyme activity in comparison with non-treated cells (Enzyme activity assay for compounds of Examples 33-141)” value was “B (Increase in comparison with non-treated of >1.7-2.0 fold is shown as B)”.

As to `COc1ccccc1Nc1cc(N)nc(C(=O)N(C)c2ccccc2)c1` [Example 50, 6-Amino-4-((2-methoxyphenyl)amino)-N-methyl-N-phenylpicolinamide], the “Range: increase in enzyme activity in comparison with non-treated cells (Enzyme activity assay for compounds of Examples 33-141)” value is “D”.

In the case of `COc1ccccc1Nc1cc(N)nc(C(=O)N2CCN(c3ccccc3)CC2)c1` [Example 51, (6-Amino-4-((2-methoxyphenyl)amino)pyridin-2-yl)(4-phenylpiperazin-1-yl)methanone], the “Range: increase in enzyme activity in comparison with non-treated cells (Enzyme activity assay for compounds of Examples 33-141)” value is “C (Increase in comparison with non-treated of 1.2-1.7 fold is shown as C)”.

For `COc1ccccc1Nc1cc(N)nc(C(=O)NC2CCc3ccccc3C2)c1` (centres unmarked) [Example 52, 6-Amino-4-((2-methoxyphenyl)amino)-N-(1,2,3,4-tetrahydronaphthalen-2-yl)picolinamide], the “Range: increase in enzyme activity in comparison with non-treated cells (Enzyme activity assay for compounds of Examples 33-141)” value was “B (Increase in comparison with non-treated of >1.7-2.0 fold is shown as B)”.

Regarding `COc1ccccc1Nc1cc(N)nc(C(=O)Nc2ccccc2)c1` [Example 53, 6-Amino-4-((2-methoxyphenyl)amino)-N-phenylpicolinamide], the “Range: increase in enzyme activity in comparison with non-treated cells (Enzyme activity assay for compounds of Examples 33-141)” value is on record as “C (Increase in comparison with non-treated of 1.2-1.7 fold is shown as C)”.

Take `COc1ccccc1Nc1cc(N)cc(C(=O)NC2Cc3ccccc3C2)n1` [Example 54, 4-Amino-N-(2,3-dihydro-1H-inden-2-yl)-6-((2-methoxyphenyl)amino)picolinamide]: the “Range: increase in enzyme activity in comparison with non-treated cells (Enzyme activity assay for compounds of Examples 33-141)” value is “C (Increase in comparison with non-treated of 1.2-1.7 fold is shown as C)”.

Consider `Nc1cc(Nc2ccccc2O)nc(C(=O)NC2Cc3ccccc3C2)n1` [Example 56, 4-Amino-N-(2,3-dihydro-1H-inden-2-yl)-6-((2-hydroxyphenyl)amino)pyrimidine-2-carboxamide], for which the “Range: increase in enzyme activity in comparison with non-treated cells (Enzyme activity assay for compounds of Examples 33-141)” value is listed as “B (Increase in comparison with non-treated of >1.7-2.0 fold is shown as B)”.

As for `Nc1cc(Nc2ccccc2O)cc(C(=O)N2Cc3ccccc3C2)n1` [Example 58, (6-Amino-4-((2-hydroxyphenyl)amino)pyridin-2-yl)(isoindolin-2-yl)methanone], the “Range: increase in enzyme activity in comparison with non-treated cells (Enzyme activity assay for compounds of Examples 33-141)” value was “B (Increase in comparison with non-treated of >1.7-2.0 fold is shown as B)”.

As to `COc1ccccc1Nc1cc(N)nc(C(=O)N2Cc3ccccc3C2)c1` [Example 59, (6-Amino-4-((2-methoxyphenyl)amino)pyridin-2-yl)(isoindolin-2-yl)methanone], the “Range: increase in enzyme activity in comparison with non-treated cells (Enzyme activity assay for compounds of Examples 33-141)” value is reported as “C (Increase in comparison with non-treated of 1.2-1.7 fold is shown as C)”.

For `Nc1cc(Nc2ccccc2Cl)cc(C(=O)N2CCN(c3ccccc3)CC2)n1` [Example 60], the “Range: increase in enzyme activity in comparison with non-treated cells (Enzyme activity assay for compounds of Examples 33-141)” value is on record as “C (Increase in comparison with non-treated of 1.2-1.7 fold is shown as C)”.
